Measurements as given in ChEMBL document CHEMBL5223175, “Discovery of novel 2-oximino-2-indolylacetamide derivatives as potent anticancer agents capable of inducing cell autophagy and ferroptosis” (Bioorg Med Chem, 2023).
Activity calls are given as the source filed them. The calls are words filed in the database; no cut-off is given here.

Experiments:
[1] = system: 5-8F; experiment: Antiproliferative activity against human 5-8F cells assessed as decrease in cell viability at 30 uM incubated for 48 hrs in presence of Era; assay type: functional, cell-based
[2] = system: 5-8F; experiment: Induction of ferroptosis in human 5-8F cells assessed as appearance of small swollen contractile punctate structures at 30 uM incubated for 48 hrs by MitoTracker Red staining based confocal microscopic analysis; assay type: functional, cell-based
[3] = system: 5-8F; experiment: Induction of ferroptosis in human 5-8F cells assessed as appearance of thickened cristae at 30 uM incubated for 48 hrs by TEM analysis; assay type: functional, cell-based
[4] = Toxicity in BALB/c mouse xenografted with human 5-8F cells assessed as change in spleen morphology at 10 to 20 mg/kg, ip administered daily by H and E staining based assay; assay type: organism-based; conditions: in vivo, dose 10-20 mg/kg
[5] = system: 5-8F; experiment: Induction of ROS generation in human 5-8F cells at 10 to 30 uM after 48 hrs by DCFH-DA staining based flow cytometry analysis; assay type: functional, cell-based; conditions: dose 10-30 µM
[6] = system: SK-HEP1; experiment: Antiproliferative activity against human SK-HEP1 cells assessed as cell viability at 80 uM incubated for 72 hrs by CCK-8 assay; assay type: functional; conditions: read-out: Activity
[7] = system: 5-8F; experiment: Antitumor activity against human 5-8F cells xenografted in BALB/c mouse assessed as decrease in GPx4 expression at 10 to 20 mg/kg, ip administered daily; assay type: functional, organism-based; conditions: dose 10-20 mg/kg
[8] = system: 5-8F; experiment: Inhibition of colony formation in human 5-8F cells at 10 to 30 uM replaced with fresh medium for every 3 days and measured for 10 to 15 days by Giemsa staining based assay; assay type: functional, cell-based; conditions: dose 10-30 µM, time 10-15 day
[9] = system: 5-8F; experiment: Induction of ferroptosis in human 5-8F cells assessed as decrease in GSH level at 10 to 30 uM incubated for 48 hrs by Western blotting analysis; assay type: functional, cell-based; conditions: dose 10-30 µM
[10] = system: 5-8F; experiment: Induction of ferroptosis in human 5-8F cells assessed as appearance of widened gabs between cristae at 30 uM incubated for 48 hrs by TEM analysis; assay type: functional, cell-based
[11] = system: 5-8F; experiment: Downregulation of p-mTOR expression in human 5-8F cells at 10 to 30 uM by Western blotting analysis; assay type: functional, cell-based; conditions: dose 10-30 µM
[12] = Toxicity in BALB/c mouse xenografted with human 5-8F cells assessed as decrease in body weight at 10 to 20 mg/kg, ip administered daily; assay type: organism-based; conditions: in vivo, dose 10-20 mg/kg
[13] = system: FaDu; experiment: Antiproliferative activity against human FaDu cells assessed as reduction in cell viability incubated for 72 hrs by CCK-8 assay; assay type: functional, cell-based
[14] = system: 5-8F; experiment: Downregulation of p-AKT expression in human 5-8F cells at 10 to 30 uM by Western blotting analysis; assay type: functional, cell-based; conditions: dose 10-30 µM
[15] = system: 5-8F; experiment: Induction of ferroptosis in human 5-8F cells assessed as appearance of vacuoles at 30 uM incubated for 48 hrs by TEM analysis; assay type: functional, cell-based
[16] = system: 5-8F; experiment: Antiproliferative activity against human 5-8F cells assessed as decrease in cell viability at 30 uM incubated for 48 hrs in presence of Fer-1; assay type: functional, cell-based
[17] = Toxicity in BALB/c mouse xenografted with human 5-8F cells assessed as change in heart morphology at 10 to 20 mg/kg, ip administered daily by H and E staining based assay; assay type: organism-based; conditions: in vivo, dose 10-20 mg/kg
[18] = system: HeLa; experiment: Antiproliferative activity against human HeLa cells assessed as cell viability at 80 uM incubated for 72 hrs by CCK-8 assay; assay type: functional; conditions: read-out: Activity
[19] = Antiproliferative activity against human NP69SV40T cells assessed as reduction in cell viability incubated for 72 hrs by CCK-8 assay; assay type: toxicity, cell-based
[20] = system: 5-8F; experiment: Induction of ferroptosis in human 5-8F cells assessed as appearance of pseudo inclusion bodies at 30 uM incubated for 48 hrs by TEM analysis; assay type: functional, cell-based
[21] = system: 5-8F; experiment: Induction of ferroptosis in human 5-8F cells assessed as change in mitochondrial morphology at 30 uM incubated for 48 hrs by TEM analysis; assay type: functional, cell-based

Compound: Cn1cc(/C(=N\O)C(=O)Nc2ccc(Cl)cc2)c2ccccc21
- Activity [1]: Active
- Activity [2]: Active
- Activity [3]: Active
- Activity [4]: Non-Toxic
- Activity [5]: Active
- viability at 80 µM [6]: 20.9%
- Activity [7]: Active
- inhibition [8]: Active
- Activity [9]: Active
- Activity [10]: Active
- Activity [11]: Active
- Activity [12]: Non-Toxic
- IC50 [13]: 22.2 µM
- Activity [14]: Active
- Activity [15]: Active
- Activity [16]: inactive
- Activity [17]: Non-Toxic
- viability at 80 µM [18]: 12.3%
- IC50 at 72 h [19]: 70.9 µM
- Activity [20]: Active
- Activity [21]: Active
